The values that follow come from patent US20140134197A1, “Mimotopic Peptides for the Diagnosis and Treatment of Multiple sclerosis” (priority 2011, published 2014).

Structures can show the parent of a compound that is named as a salt. Ends that are not written are not given here.

Assay in the first series: not given
Conditions: Tables 3a-3e; from cited literature; CD4 T-helper cells; cited from earlier work.
In the case of `Fc1ccc([C@@H]2CCNC[C@H]2COc2ccc3c(c2)OCO3)cc1` [Paroxetine], the “Immunosuppressive Effects” value is reported as “Decreases CD4 T-Helper Cells”.

Still in this series, the particulars now being: Tables 3a-3e; from cited literature; cited from earlier work.
As to `N[C@@H](Cc1cc(I)c(Oc2cc(I)c(O)c(I)c2)c(I)c1)C(=O)O` [Levoxyl, Levothyroxine], the “Immunosuppressive Effects” value was “Inhibits Cytokine”.

For the molecule `CN1C(=O)CN=C(c2ccccc2)c2cc(Cl)ccc21` [Diazepam], the “Immunosuppressive Effects” value is “Markedly Suppresses Antigen-”.

In the case of `Nc1ccc(O)c(C(=O)O)c1` [Mesalazine], the “Immunosuppressive Effects” value was “Potent and Specific Inhibitor”.

Turning to `CNCCC(Oc1ccc(C(F)(F)F)cc1)c1ccccc1` (stereo not drawn) [Fluoxethine], the “Immunosuppressive Effects” value is “Decreases T Lymphocyte”.

On to `CC(C)c1c(C(=O)Nc2ccccc2)c(-c2ccccc2)c(-c2ccc(F)cc2)n1CC[C@@H](O)C[C@@H](O)CC(=O)O` [Atorvastatin], for which the “Immunosuppressive Effects” value is “Increases in IL-10 Production”.

`O=C1NC(=O)C(c2ccccc2)(c2ccccc2)N1` [Dilantin, Phenytoin sodium]: the “Immunosuppressive Effects” value is on record as “Humoral Immune Suppressant”.

For `CC(C)c1nc(N(C)S(C)(=O)=O)nc(-c2ccc(F)cc2)c1/C=C/[C@@H](O)C[C@@H](O)CC(=O)O` [Rosuvastatin], the “Immunosuppressive Effects” value was “Post-Transcriptional Level”.

On to `COc1ccc(C(CN(C)C)C2(O)CCCCC2)cc1` (stereo not drawn) [Venlafaxine], for which the “Immunosuppressive Effects” value is recorded as “Suppresses pro-Inflammatory”.

For the molecule `NS(=O)(=O)Cc1noc2ccccc12` [Zonisamide], the “Immunosuppressive Effects” value is “Suppression of IFN-gamma”.

Consider `Cc1nnc2n1-c1ccc(Cl)cc1C(c1ccccc1)=NC2` [Alprazolam], for which the “Immunosuppressive Effects” value is recorded as “Inhibits proliferative responses”.

The same series, now with this note: Tables 3a-3e; from cited literature; hydrochloride; antigen-specific TH1 responses; cited from earlier work.
Take `CN[C@H]1CC[C@@H](c2ccc(Cl)c(Cl)c2)c2ccccc21` [Sertraline hydrochloride]: the “Immunosuppressive Effects” value is listed as “Suppression of Antigen-”.

The same series, now with this note: Tables 3a-3e; from cited literature; splenocyte viability; cited from earlier work.
For `Fc1ccc([C@@H]2CCNC[C@H]2COc2ccc3c(c2)OCO3)cc1` [Paroxetine], the “Immunosuppressive Effects” value is listed as “Inhibit Splenocyte Viability”.

The next series is described as follows: Solubility / hydrophilicity of mimotopic peptides, free or with amino-ADOOA-ADOOA linker. Format: physicochemical.
Conditions: not given
The source says:
Dimeric IgE complexing hinges upon disruption of the overhanging oligodendrocyte membrane surface and facilitated intracellular autoantibody inflow. […] Table 4a lists structurally unique, mimotopic, peptides serving as diagnostic and therapeutic antigens. […] Peptides used for initial diagnosis can be of maximum, unique length (column 3) or can be fractionated into pentameric, single epitope equivalents (column 5). […] The amide group is used for covalent Coupling to microplate wells. The 3,6-dioxaoctanoic acid2 construct, being very hydrophilic, solubilizes most al peptides, especially those that are relatively hydrophobic. The listed myelin, dimer-cornerstone peptide homologues (bold-highlighted) for MS therapy are useful because of their in-vivo: (a) net hydrophilicity for adequate solubility; […] The linker provides both increased hydrophilicity for enhanced solubility and serves as a point of attachment onto microtiter test plate wells. The peptide […] NO: 3) is an example of a soluble short peptide that is comprised of a singularly unique MOG surface pentamer, […]
Turning to DNEVFGEA, the “hydrophilicity / solubilization when coupled with amino-ADOOA-ADOOA linker” value (from here on “hydrophilicity / solubilization”) is recorded as “sufficiently hydrophilic”.

As for NLHRTFE [Asn Leu His Arg Thr Phe Glu], the “hydrophilicity / solubilization” value is “sufficiently hydrophilic”.

As for DNTFKD [DNTFKD], the “hydrophilicity / solubilization” value is “sufficiently hydrophilic”.

Consider KDSHHPA [Lys Asp Ser His His Pro Ala], for which the “hydrophilicity / solubilization” value was “solubilize readily”.

Regarding YKDSHHPA, the “hydrophilicity / solubilization” value is listed as “solubilize readily”.

With QDTAVT [QDTAVT], the “hydrophilicity / solubilization” value is “sufficiently hydrophilic”.

For “Lys Gly Thr Gln Phe (KGTQF; listed as Homo sapiens) [KTGQF]”, the aggregation tendency result was “dual molecule aggregate-forming tendencies”.

As to PKNAW [PKNAW], the “hydrophilicity / solubilization” value was “sufficiently hydrophilic”.

LQTIQE [LQTIQE]: the “hydrophilicity / solubilization” value is given as “sufficiently hydrophilic”.

For HGRTQ [HGRTQ], the “hydrophilicity / solubilization” value was “solubilize readily”.

Take DHSYQE [DHSYQE]: the “solubility of short therapeutic peptide” value is “soluble”.
